{"source": "patent US9265771B2", "about": "“Method for treating Lyme disease” (Zoetis Services LLC, priority 2012, dated 2016)", "tested_on": "B. burgdorferi", "assay": "Study A: SNAP-4Dx ELISA in tick-infected dogs", "type": "in vivo, beagle dogs", "details": "N=8", "description": "Three outer surface proteins (Osp) on B. burgdorferi are important for diagnosis and prevention, and are expressed by the organism in response to its local environment. […] OspF is another surface protein that is generally observed in late-stage disease. The C in […] refers to a 25-amino acid, C6 peptide in the sixth invariable region of an outer membrane lipoprotein (VIsE). Antibody against C6 is highly accurate as a serologic diagnosis of Lyme disease independent of a subject's (e.g., canine) vaccination status. Further, the generation of C6 antibodies implies an active infection with viable spirochetes. Serological methods for detecting B. burgdorfer/Lyme disease were conducted using the IDEXX qualitative SNAP-4Dx ELISA and the Quantitative C6 (Quant C6 or QC6) diagnostic kits, which are enzyme linked immunosorbent assays against the previously described 25-amino-acid C6 peptide. […]\nTwenty-three adult female beagle dogs were used in this study; all were sero-negative for Borrelia, not vaccinated with any Borrelia spp vaccines, and acclimated at the study facility for seven days prior to any study activities. […] Dogs were monitored 21-days post-challenge for pyrexia, and the entire post-challenge period for clinical signs of Lyme disease (lameness, ataxia, anorexia, lymphadenopathy and depression). […]", "data": [{"compound": "CO/N=C(\\C(=O)N[C@@H]1C(=O)N2C(C(=O)[O-])=C([C@@H]3CCCO3)CS[C@H]12)c1csc(N)n1.[Na+]", "note": "[Convenia, (6R,7R)-7-[[(2Z)-(2-amino-4-thiazolyl)(methoxyimino)acetyl]-amino]-8-oxo-3-[(2S)-tetrahydro-2-furanyl]-5-thia-1-azabicyclo[4.2.0]oct-2-ene-2-carboxylic acid, monosodium salt]", "values": [{"measurement": "Dogs SNAP-4Dx positive for B. burgdorferi", "setting": "prior to administration of Convenia on Day 83", "value": 100, "unit": "%"}, {"measurement": "Number of dogs remaining SNAP-4Dx positive", "setting": "through the study (Day 166), 8 mg/kg sc Days 83 and 97", "value": "five to seven"}]}]}
